This is an account of results in patent EP1977759A1, “Pharmaceutical composition comprising a cytokine” (4SC AG, priority 2007, dated 2008).

Data set [1] deals with bovine viral diarrhea virus (BVDV) NADL strain. Put plainly: BVDV antiviral efficacy evaluation, drug-drug combination analysis (checkerboard, MTS staining, MacSynergy II). The data set is classed as cell-based. Conditions: in combination with TNF-α; MDBK cells with BVDV virus; interaction by Bliss independence (MacSynergy II). Here is the method:
(§1) The substances were solubilized in DMSO. […]
(§2) The bovine viral diarrhea virus (BVDV) NADL strain antiviral evaluation assay and drug-drug combination analysis was performed as described in Antimicro. Agents Chemother. 2003; 47: 2293-8. BVDV is frequently employed as a hepatitis C virus surrogate model in the study of antiviral agents (Antiviral Res. 2003; 60: 1-15). Madin-Darby bovine kidney cells were trypsinized, pelleted, counted and resuspended at 1×10^4/well in tissue culture medium in 96-well flat bottom, tissue culture plates in volume of 100µl per well. […]
(§3) At assay termination, the assay plates were stained with the soluble tetrazolium-based dye MTS (CellTiter Reagent Promega) to determine cell viability and quantify compound toxicity. MTS is metabolized y the mitochondrial enzymes of metabolically active cells to yield a soluble formazan product, allowing the rapid quantitative analysis of cell viability and compound cytotoxicity. […] Adhesive sealers were used in place of the lids, the sealed plate was inverted several times to mix the soluble formazan product and the plate was read spectrophotometrically at 490 nm and 650 nm with a Molecular Devices Vmax plate reader. […]
(§4) Theoretical additive values are calculated from the dose response curves for each substance used individually. […]

Data set [2] deals with Madin-Darby bovine kidney cells. Kind of data set: BVDV assay, cytotoxicity of the drug-drug combination (MTS staining for cell viability). Format: cell-based. Conditions: in combination with TNF-α; MDBK cells; interaction by Bliss independence (MacSynergy II). Here is the method:
as §1, §2, §3, §4

As for `O=C(c1ccccc1)c1ccc2nc(NC(=O)c3csc(C4CCN(c5ncnc6ccsc56)CC4)n3)[nH]c2c1` [Compound 273, 2-(1-Thieno[3,2-d]pyrimidin-4-yl-piperidin-4-yl)-thiazole-4-carboxylic acid (5-b enzoyl-1H-benzaimidazol-2-yl)-amide], in data set [1], the combined antiviral activity entry is “highly synergistic behaviour”. Moreover, the combined cytotoxic activity result in data set [2] is “highly antagonistic behaviour”.
